Holding throughout (format): biochemical
The target of one assay is CDK7 (Homo sapiens, UniProt P50613). Kind of assay: experiment of inhibiting kinase activity (Caliper mobility shift assay), CDK7. The note with it: for inhibition at 0.1 µM: at 100 nM; for inhibition at 0.1 µM / inhibition at 0.01 µM: read-out: inhibition rate CDK7; for inhibition at 0.01 µM: at 10 nM. On the procedure: (§1) The inhibition rates of tested compounds on JAK1, JAK2, JAK3, TYK2, CDK7, CDK9, EGFR (T790M) and LRRK2 kinases were measured. The test concentrations of the compounds were 10 nM and 100 nM, and the detection was performed by replicate wells. Alternatively, compounds were 3-fold serial diluted from 10 µM for 10 concentrations in replicate wells.
Chain of CDK7 (P50613 whole entry, species assumed): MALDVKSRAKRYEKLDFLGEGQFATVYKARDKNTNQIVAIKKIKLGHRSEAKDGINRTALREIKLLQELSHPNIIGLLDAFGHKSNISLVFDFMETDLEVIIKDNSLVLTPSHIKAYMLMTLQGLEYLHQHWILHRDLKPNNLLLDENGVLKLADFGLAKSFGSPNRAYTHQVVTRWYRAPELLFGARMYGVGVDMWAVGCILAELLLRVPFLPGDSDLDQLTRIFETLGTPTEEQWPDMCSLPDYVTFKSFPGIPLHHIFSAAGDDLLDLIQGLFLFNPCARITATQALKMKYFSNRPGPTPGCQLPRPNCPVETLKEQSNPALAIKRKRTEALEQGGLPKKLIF
Chain of CDK7 (P51946 whole entry partner, species assumed): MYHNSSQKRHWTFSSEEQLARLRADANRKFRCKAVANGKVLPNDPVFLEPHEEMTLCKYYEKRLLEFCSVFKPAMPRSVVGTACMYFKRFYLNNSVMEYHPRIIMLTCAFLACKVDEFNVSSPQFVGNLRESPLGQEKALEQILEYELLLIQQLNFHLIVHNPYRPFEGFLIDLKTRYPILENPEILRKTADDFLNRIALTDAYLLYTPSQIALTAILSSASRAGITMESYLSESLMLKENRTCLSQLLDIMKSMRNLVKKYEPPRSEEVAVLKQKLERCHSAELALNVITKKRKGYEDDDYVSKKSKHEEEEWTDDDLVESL
Chain of CDK7 (P51948 whole entry partner, species assumed): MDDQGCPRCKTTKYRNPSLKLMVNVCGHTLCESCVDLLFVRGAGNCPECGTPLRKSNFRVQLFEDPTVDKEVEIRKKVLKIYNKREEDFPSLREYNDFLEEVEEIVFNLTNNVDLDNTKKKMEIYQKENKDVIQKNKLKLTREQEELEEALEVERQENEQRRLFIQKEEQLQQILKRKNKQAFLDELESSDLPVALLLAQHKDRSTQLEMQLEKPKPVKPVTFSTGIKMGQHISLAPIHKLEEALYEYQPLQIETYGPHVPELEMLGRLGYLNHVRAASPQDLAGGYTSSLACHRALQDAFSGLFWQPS
(§2) The inhibitory effects of the compounds on JAK1, JAK2, JAK3, CDK7 and CDK9 kinases were detected by the method of Caliper mobility shift assay. 250 nL of the compound at 100-fold final concentration was transferred to a destination plate 384-well-plate by using a liquid handler Echo 550. A kinase solution at 2.5-fold final concentration was prepared with 1×kinase buffer. 10 µL of the kinase solution with 2.5-fold final concentration was added to compound wells and positive control wells; and 10 µL of 1×kinase buffer was added to negative control wells. The mixture was centrifuged at 1000 rpm for 30 seconds and then incubated at room temperature for 10 minutes. A mixed solution of ATP and kinase substrate at 5/3-fold final concentration was prepared with 1×kinase buffer, and 15 µL of the mixed solution of ATP and substrate at 5/3-fold final concentration was added to start the reaction. The 384-well plate was centrifuged at 1000 rpm for 30 seconds, shaked and mixed evenly, then incubated at room temperature for a corresponding time. 30 µL of stop solution was added to stop the kinase reaction, the mixture was centrifuged at 1000 rpm for 30 seconds, and shaked and mixed evenly. The conversion rate was read by Caliper EZ Reader. The conversion inhibition rate%=(average positive control conversion rate%-sample conversion rate%)/(average positive control conversion rate%-average negative control conversion rate%). Where negative control wells represent the conversion readings of the background well of kinase buffer; and positive control wells represent the conversion readings of wells without compound inhibition. With the log value of concentration as the x axis and the percentage inhibition rate as the y axis, the dose-response curve was fitted by the log (inhibitor) vs. response-variable slope of the analyzing softwar GraphPad Prism 5, and the IC50 values of each compound on enzyme activity were obtained. Calculation formula is as follows: y=Bottom+(Top-Bottom)/(1+10^((LogIC50-x)×hillslope)), where x is logarithm of inhibitor concentration; and Y is % inhibition rate.

A further assay deals with JAK2 (Homo sapiens, UniProt O60674). The assay can be described thus: experiment of inhibiting kinase activity (Caliper mobility shift assay), JAK2. The note with it: for inhibition at 0.1 µM: at 100 nM; for inhibition at 0.1 µM / inhibition at 0.01 µM: read-out: inhibition rate JAK2; for inhibition at 0.01 µM: at 10 nM. On the procedure: as §1, §2
Chain of JAK2 (O60674 whole entry): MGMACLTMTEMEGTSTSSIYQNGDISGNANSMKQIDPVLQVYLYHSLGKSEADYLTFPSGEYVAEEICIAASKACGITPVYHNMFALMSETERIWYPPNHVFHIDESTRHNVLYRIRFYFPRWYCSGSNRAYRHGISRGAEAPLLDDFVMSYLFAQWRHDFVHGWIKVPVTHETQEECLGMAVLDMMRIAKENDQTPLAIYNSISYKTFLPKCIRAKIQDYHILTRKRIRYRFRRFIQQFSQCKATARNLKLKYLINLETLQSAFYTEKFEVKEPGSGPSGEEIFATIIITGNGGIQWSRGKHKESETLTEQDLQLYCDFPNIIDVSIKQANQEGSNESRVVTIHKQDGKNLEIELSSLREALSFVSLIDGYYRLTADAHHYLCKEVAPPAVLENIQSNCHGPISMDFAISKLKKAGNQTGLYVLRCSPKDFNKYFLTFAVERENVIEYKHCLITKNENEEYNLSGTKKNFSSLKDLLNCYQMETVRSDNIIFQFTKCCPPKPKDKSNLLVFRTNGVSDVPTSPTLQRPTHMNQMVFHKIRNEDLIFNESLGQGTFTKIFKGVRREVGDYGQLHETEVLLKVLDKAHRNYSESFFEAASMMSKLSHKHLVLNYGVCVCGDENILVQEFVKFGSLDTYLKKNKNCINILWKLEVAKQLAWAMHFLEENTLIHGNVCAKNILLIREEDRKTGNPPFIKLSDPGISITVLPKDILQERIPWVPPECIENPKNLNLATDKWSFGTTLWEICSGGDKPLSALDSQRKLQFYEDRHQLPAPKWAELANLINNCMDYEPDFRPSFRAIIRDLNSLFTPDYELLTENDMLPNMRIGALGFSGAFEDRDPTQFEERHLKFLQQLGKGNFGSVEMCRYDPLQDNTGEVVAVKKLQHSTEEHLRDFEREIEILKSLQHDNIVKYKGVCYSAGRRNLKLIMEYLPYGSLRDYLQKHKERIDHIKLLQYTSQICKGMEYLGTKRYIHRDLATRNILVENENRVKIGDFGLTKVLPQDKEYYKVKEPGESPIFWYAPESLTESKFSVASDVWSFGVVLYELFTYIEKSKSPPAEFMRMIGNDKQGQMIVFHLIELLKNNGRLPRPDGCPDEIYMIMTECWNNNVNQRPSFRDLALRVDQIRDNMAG
The next assay deals with LRRK2 (Homo sapiens, UniProt Q5S007). The assay can be described thus: experiment of inhibiting kinase activity, LRRK2. As to conditions: for inhibition at 0.1 µM: at 100 nM; for inhibition at 0.1 µM / inhibition at 0.01 µM: read-out: inhibition rate LRRK2; for pIC50: kinase activity assay, Table 3; for inhibition at 0.01 µM: at 10 nM. On the procedure:
as §1

The next assay addresses T1, JAK3 (Homo sapiens, UniProt P52333).
T1 sequence (P52333 1-1124): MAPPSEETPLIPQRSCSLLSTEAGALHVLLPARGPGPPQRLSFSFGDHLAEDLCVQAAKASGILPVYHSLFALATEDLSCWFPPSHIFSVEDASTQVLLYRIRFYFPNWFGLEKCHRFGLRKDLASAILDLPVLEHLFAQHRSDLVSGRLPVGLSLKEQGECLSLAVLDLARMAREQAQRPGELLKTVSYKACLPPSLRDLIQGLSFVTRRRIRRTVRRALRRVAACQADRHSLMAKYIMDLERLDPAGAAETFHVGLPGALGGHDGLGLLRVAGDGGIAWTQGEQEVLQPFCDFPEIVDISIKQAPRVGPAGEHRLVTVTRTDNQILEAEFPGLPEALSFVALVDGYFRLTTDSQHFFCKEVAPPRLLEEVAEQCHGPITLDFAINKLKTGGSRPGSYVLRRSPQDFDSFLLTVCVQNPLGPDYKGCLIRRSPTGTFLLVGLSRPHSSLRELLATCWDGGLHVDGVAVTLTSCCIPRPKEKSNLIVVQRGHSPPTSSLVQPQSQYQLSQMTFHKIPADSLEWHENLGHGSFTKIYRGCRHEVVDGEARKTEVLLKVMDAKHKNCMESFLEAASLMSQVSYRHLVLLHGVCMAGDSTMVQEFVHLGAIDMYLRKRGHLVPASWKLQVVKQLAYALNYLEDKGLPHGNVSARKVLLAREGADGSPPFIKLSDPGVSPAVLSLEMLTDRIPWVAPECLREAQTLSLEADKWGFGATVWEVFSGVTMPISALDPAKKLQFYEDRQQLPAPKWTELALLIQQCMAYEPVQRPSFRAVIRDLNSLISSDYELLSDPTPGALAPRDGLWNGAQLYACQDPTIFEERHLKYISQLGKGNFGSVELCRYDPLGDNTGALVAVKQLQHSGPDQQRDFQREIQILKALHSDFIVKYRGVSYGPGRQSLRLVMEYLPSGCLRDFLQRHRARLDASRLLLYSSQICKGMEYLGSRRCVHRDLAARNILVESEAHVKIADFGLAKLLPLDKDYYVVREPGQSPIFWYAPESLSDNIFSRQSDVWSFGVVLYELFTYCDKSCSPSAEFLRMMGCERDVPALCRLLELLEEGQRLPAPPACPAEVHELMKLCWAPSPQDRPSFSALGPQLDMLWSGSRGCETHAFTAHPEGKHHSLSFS
Kind of assay: experiment of inhibiting kinase activity (Caliper mobility shift assay), JAK3. The note with it: for inhibition at 0.1 µM: at 100 nM; for inhibition at 0.1 µM / inhibition at 0.01 µM: read-out: inhibition rate JAK3; for inhibition at 0.01 µM: at 10 nM. On the procedure: as §1, §2

Another assay concerns the target TYK2 (Homo sapiens, UniProt P29597). Kind of assay: experiment of inhibiting kinase activity, TYK2. As to conditions: read-out: inhibition rate TYK2; for inhibition at 0.01 µM: at 10 nM; for inhibition at 0.1 µM: at 100 nM. On the procedure: as §1
The target of the next assay is JAK1 (Homo sapiens, UniProt P23458). Kind of assay: experiment of inhibiting kinase activity (Caliper mobility shift assay), JAK1. The note with it: for inhibition at 0.01 µM: at 10 nM; for inhibition at 0.01 µM / inhibition at 0.1 µM: read-out: inhibition rate JAK1; for inhibition at 0.1 µM: at 100 nM. On the procedure:
as §1, §2

pIC50: −log10 of the molar value. Bounds are passed on as bounds.

Chain of JAK1 (P23458 whole entry): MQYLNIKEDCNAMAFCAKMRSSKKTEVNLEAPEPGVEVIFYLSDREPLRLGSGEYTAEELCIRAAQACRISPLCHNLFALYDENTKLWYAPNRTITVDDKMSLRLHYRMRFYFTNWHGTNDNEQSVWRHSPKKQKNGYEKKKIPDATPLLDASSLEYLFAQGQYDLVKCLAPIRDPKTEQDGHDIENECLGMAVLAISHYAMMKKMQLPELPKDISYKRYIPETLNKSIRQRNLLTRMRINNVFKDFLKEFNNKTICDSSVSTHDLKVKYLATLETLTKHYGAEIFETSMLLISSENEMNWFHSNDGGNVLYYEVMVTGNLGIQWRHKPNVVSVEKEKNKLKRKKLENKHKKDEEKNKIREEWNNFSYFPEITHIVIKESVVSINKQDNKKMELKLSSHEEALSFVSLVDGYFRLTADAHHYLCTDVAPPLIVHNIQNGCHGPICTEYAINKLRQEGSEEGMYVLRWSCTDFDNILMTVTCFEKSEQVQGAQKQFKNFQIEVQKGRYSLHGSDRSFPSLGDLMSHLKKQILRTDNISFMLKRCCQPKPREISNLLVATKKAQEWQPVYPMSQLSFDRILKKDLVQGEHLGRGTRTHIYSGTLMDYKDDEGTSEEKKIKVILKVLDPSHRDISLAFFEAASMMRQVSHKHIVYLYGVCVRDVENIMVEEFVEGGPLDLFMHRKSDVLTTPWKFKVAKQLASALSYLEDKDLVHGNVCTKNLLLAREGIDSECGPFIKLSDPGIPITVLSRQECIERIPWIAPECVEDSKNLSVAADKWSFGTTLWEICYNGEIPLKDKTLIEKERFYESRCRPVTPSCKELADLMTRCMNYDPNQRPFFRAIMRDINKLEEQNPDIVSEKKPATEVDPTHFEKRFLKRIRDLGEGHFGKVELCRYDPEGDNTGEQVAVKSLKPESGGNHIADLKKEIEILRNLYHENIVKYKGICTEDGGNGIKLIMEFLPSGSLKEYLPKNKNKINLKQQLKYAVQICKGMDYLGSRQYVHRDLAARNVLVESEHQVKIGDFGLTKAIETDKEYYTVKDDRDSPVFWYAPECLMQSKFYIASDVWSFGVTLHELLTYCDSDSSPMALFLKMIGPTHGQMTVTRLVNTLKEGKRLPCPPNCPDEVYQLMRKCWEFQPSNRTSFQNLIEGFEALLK
Chain of TYK2 (P29597 whole entry): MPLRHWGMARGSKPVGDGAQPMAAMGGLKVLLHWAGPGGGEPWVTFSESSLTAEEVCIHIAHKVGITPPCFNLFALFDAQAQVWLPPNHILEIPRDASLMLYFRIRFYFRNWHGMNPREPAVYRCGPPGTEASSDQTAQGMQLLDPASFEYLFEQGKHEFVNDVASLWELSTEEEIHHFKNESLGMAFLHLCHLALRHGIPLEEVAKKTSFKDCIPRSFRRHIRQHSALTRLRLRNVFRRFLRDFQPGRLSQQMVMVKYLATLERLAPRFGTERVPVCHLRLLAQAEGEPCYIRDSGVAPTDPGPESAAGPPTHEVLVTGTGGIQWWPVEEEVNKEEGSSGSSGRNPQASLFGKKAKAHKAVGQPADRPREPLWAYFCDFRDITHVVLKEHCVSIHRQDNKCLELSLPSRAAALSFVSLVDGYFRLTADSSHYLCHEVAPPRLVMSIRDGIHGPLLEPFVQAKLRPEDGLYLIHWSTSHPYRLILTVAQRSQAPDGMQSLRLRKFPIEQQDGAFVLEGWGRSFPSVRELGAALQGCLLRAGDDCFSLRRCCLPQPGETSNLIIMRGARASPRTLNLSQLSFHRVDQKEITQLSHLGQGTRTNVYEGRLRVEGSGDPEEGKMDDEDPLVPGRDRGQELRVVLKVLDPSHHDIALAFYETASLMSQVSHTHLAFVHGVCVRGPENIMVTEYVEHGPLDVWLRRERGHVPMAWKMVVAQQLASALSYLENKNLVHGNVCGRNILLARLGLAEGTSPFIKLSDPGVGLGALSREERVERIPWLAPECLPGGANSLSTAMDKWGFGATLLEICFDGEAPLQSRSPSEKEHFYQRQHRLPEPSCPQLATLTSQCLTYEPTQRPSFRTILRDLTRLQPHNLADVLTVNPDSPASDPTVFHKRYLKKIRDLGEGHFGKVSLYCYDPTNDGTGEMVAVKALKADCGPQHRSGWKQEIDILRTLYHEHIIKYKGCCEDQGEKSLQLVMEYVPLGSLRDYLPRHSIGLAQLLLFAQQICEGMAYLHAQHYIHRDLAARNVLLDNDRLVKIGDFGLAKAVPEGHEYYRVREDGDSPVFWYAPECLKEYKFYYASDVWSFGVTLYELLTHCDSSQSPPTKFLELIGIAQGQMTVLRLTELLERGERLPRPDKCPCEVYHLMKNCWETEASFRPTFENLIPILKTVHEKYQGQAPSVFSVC

As for `CN1CCOc2ccc(Nc3nc(-c4cn(C)c5ccccc45)c4cc[nH]c4n3)cc2OCC1` [Example 39, 4-methyl-N-(4-(1-methyl-1H-indol-3-yl)-7H-pyrrolo[2,3-d]pyrimidin-2-yl)-3,4,5,6-tetrahydro-2H-benzo[b][1,4,7]dioxazolin-9-amine], the inhibition (as a rule, the change of the read-out against control, counted positive when it falls) at 0.1 µM on CDK7 fell in the range of 25 to 39%; at JAK2, 40 to 79%; on LRRK2, 40 to 79%. Further, the pIC50 (in general, the IC50 on a negative log10 scale, so that one unit is a factor of ten) against LRRK2 was over 7.30.

For the molecule `CN1CCOc2ccc(Nc3nc(-c4cn(C)c5ccccc45)c4cn[nH]c4n3)cc2OCC1` [Example 5, 4-methyl-N-(4-(1-methyl-1H-indol-3-yl)-1H-pyrazolo[3,4-d]pyrimidin-6-yl)-3,4,5,6-tetrahydro-2H-benzo[b][1,4,7]dioxazolin-9-amine], the inhibition at 0.1 µM at CDK7 lay within 25 to 39%.

For `C=CC(=O)Nc1cc(C)ccc1Nc1nc(Nc2ccc3c(c2)OCCN(C)CCO3)ncc1C(F)(F)F` [Example 112, N-(5-methyl-2-((2-((4-methyl-3,4,5,6-tetrahydro-2H-benzo[b][1,4,7]dioxazolin-9-yl)amino)-5-(trifluoromethyl)pyrimidin-4-yl)amino)phenyl)acrylamide], the inhibition at 0.01 µM at CDK7 lay within 40 to 79%.

As for `CC(C)S(=O)(=O)c1ccccc1Nc1nc(Nc2ccc3c(c2)OCCN(C)CCOCCO3)nc2[nH]ncc12` [Example 12, N^4-(2-(isopropylsulfonyl)phenyl)-N^6-(7-methyl-2,3,6,7,8,9-hexahydro-5H-benzo[b][1,4, 7]trioxa[10]azacyclododecan-12-yl)-1H-pyrazolo[3,4-d]pyrimidin-4,6-diamine], the inhibition at 0.01 µM fell in the range of 40 to 79% at CDK7 and 25 to 39% at LRRK2. Further, the inhibition at 0.1 µM on CDK7 was over 80%; at JAK3 it was 25 to 39%; at JAK2, 40 to 79%; on LRRK2 it was over 80%. The pIC50 at CDK7 (kinase activity assay, Table 3) is over 7.30; at LRRK2, over 7.30.

With `CN1CCOCCOc2cc(Nc3nc(Nc4ccccc4P(C)(C)=O)c4cn[nH]c4n3)ccc2OCC1` [Example 33, dimethyl(2-((6-((7-methyl-2,3,6,7,8,9-hexahydro-5H-benzo[b][1,4,7]trioxa[10]azacyclododecan-13-yl)amino)-1H-pyrazolo[3,4-d]pyrimidin-4-yl)amino)phenyl)phosphine oxide], the inhibition at 0.1 µM at CDK7 was 40 to 79%; at JAK3 it was over 80%; on JAK2, 40 to 79%; at LRRK2 it was over 80%. Further, the inhibition at 0.01 µM on JAK3 was 25 to 39%; on LRRK2 it was over 80%. The negative logarithm of the IC50 (pIC50) on LRRK2 is over 7.30.

For `CC(=O)N1CCOCCOc2cc(Nc3nc(Nc4ccccc4S(=O)(=O)C(C)C)c4cc[nH]c4n3)ccc2OCC1` [Example 98, 1-(13-((4-((2-(isopropylsulfonyl)phenyl)amino)-7H-pyrrolo[2,3-d]pyrimidin-2-yl)amino)-2,3,5,6,8,9-hexahydro-7H-benzo[b][1,4,7]trioxa[10]azacyclododecan-7-yl)ethan-1-one], the inhibition at 0.01 µM on CDK7 was 25 to 39%; on JAK3, 40 to 79%; on JAK2, 40 to 79%; on LRRK2, over 80%. Further, at LRRK2, the pIC50 is over 7.30.

For `CN1CCOCCOc2cc(Nc3nc(-c4cn(C)c5ccccc45)c4cn[nH]c4n3)ccc2OCC1` [Example 24, 7-methyl-N-(4-(1-methyl-1H-indol-3-yl)-1H-pyrazolo[3,4-d]pyrimidin-6-yl)-2,3,6,7,8,9-hexahydro-5H-benzo[b][1,4,7]trioxa[10]azacyclododecan-13-amine], the inhibition at 0.1 µM on CDK7 is 40 to 79%; on JAK2 it was 40 to 79%; on LRRK2, 25 to 39%.

With `CN1CCOCCOc2ccc(Nc3nc(-c4cnn(C(CC#N)C5CCCC5)c4)c4cc[nH]c4n3)cc2OCC1` (centres unmarked) [Example 48, 3-cyclopentyl-3-(4-(2-((7-methyl-2,3,6,7,8,9-hexahydro-5H-benzo[b][1,4,7]trioxa [10]azacyclododecan-12-yl)amino)-7H-pyrrolo[2,3-d]pyrimidin-4-yl)-1H-pyrazol-1-yl) propionitrile], the inhibition at 0.01 µM on TYK2, at JAK3, at JAK2, at JAK1 and at LRRK2 was over 80% in each case.

For the molecule `CCS(=O)(=O)N1CC(CC#N)(n2cc(-c3nc(Nc4ccc5c(c4)OCCN(C)CCO5)nc4[nH]ncc34)cn2)C1` [Example 29, 2-(1-(ethylsulfonyl)-3-(4-(6-((4-methyl-3,4,5,6-tetrahydro-2H-benzo[b][1,4,7]dioxazolin-9-yl)amino)-1H-pyrazolo[3,4-d]pyrimidin-4-yl)-1H-pyrazol-1-yl)azetidin-3-yl) acetonitrile], the inhibition at 0.1 µM at TYK2 is over 80%; at JAK2, over 80%; at JAK1 it was over 80%; on LRRK2, 40 to 79%. Also, the pIC50 at JAK3 (kinase activity assay, Table 3) was over 7.30; on JAK2 (kinase activity assay, Table 3), over 7.30; on JAK1 (kinase activity assay, Table 3) it was over 7.30; at LRRK2 it was 6.70 to 7.30.

As for `CN1CCOCCOc2cc(Nc3nc(-c4cnn([C@H](CC#N)C5CCCC5)c4)c4cc[nH]c4n3)ccc2OCC1` [Example 74, (R)-3-cyclopentyl-3-(4-(2-((7-methyl-2,3,6,7,8,9-hexahydro-5H-benzo[b][1,4,7]trioxa[10]azacyclododecan-13-yl)amino)-7H-pyrrolo[2,3-d]pyrimidin-4-yl)-1H-pyrazol-1-yl) propionitrile], the inhibition at 0.01 µM on TYK2 was over 80%; at JAK3 it was over 80%; at JAK2, over 80%; at JAK1, 25 to 39%; at LRRK2 it was 40 to 79%.

For `CN1CCOCCOc2ccc(Nc3ncc(F)c(Nc4cccc(S(=O)(=O)NC(C)(C)C)c4)n3)cc2OCC1` [Example 40, N-(tert-butyl)-3-((5-fluoro-2-((7-methyl-2,3,6,7,8,9-hexahydro-5H-benzo[b][1,4,7]trioxa[10]azacyclododecan-12-yl)amino)pyrimidin-4-yl)amino)benzenesulfonamide], the inhibition at 0.1 µM at TYK2 was 40 to 79%; on JAK3, 25 to 39%; at JAK2 it was over 80%; at JAK1, 25 to 39%; at LRRK2, 25 to 39%. Further, the inhibition at 0.01 µM at JAK2 was over 80%.

(Values after EP4592286A1, “MACROCYCLIC NITROGEN-CONTAINING CROWN ETHER COMPOUND AND USE THEREOF AS PROTEIN KINASE INHIBITOR” (Artivila Biopharma, priority 2022, dated 2024).)
